The assay deals with Serine/threonine-protein kinase mTOR (Homo sapiens) (UniProt P42345). Briefly: mTOR FRB domain ligand binding – biophysical, NMR (AID 1648). As to conditions: NMR binding to FRB domain, chemical shift.

104 compounds from PubChem BioAssay AID1648 (Sanford-Burnham Center for Chemical Genomics, 2009) can be followed below.

As a reminder, the Kd is the free concentration of one partner at which half of the binding sites on the other are occupied at equilibrium, for simple one-to-one binding.

Calls of active or inactive are those of the source. The rule behind the calls is not given here.

Sequence of Serine/threonine-protein kinase mTOR (Homo sapiens) (P42345 2015-2114): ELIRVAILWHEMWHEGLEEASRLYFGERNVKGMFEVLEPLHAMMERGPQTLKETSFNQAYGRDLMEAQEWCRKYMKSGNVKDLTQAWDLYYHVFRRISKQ

`CN(C)c1nc(N)nc(Cn2ccnc2)n1`: the Kd is > 4 mM (inactive).
The result for `COc1ccc2c(c1)[n+](=O)c(C(C)=O)c(C)n2[O-]` reads > 4 mM (inactive); that for `CCOc1ccc(N2C(=O)CCC2=O)cc1`, > 4 mM (inactive).
For `NCc1nnnn1-c1ccccc1`, the Kd is > 4 mM (inactive).
With `CN(C)C(=O)Nc1ccc2c(c1)nnn2C`, the Kd is > 4 mM (inactive).
`CC[C@@]1(O)C[C@H](O)c2c(cc3c(c2O)C(=O)c2c(O)ccc(O)c2C3=O)[C@H]1C(=O)OC`: the Kd is > 4 mM (inactive).
For `Cc1nc(SCC#N)c2c3c(sc2n1)CCC3`, the Kd was > 4 mM (inactive).
For the compound `Nc1cc(F)ccc1-n1ccnc1`, the Kd was > 4 mM (inactive).
The result for `O=C(Nc1cnccn1)c1cccc(C(F)(F)F)c1` reads > 4 mM (inactive).
The result for `O=C(Nc1cccc(C(F)(F)F)c1)c1cccnc1` reads > 4 mM (inactive).
Turning to `CN1CCCC1C(=O)O` (centres undefined), the Kd is > 4 mM (inactive).
For `O=C(c1cnsn1)N1CCN(c2ccccn2)CC1`, the Kd is > 4 mM (inactive).
Regarding `N#Cc1cn(CC(=O)N2CCCC2)c2ccccc12`, the Kd is > 4 mM (inactive).
Regarding `Cc1ccc(C)n1CCN1CCNCC1`, the Kd was > 4 mM (inactive).
With `O=C(O)C1=Cc2ccccc2OC1`, the Kd was > 4 mM (inactive).
Regarding `Oc1ccc2nonc2c1`, the Kd was > 4 mM (inactive).
Regarding `Oc1ccc2c(c1)OCO2`, the Kd is > 4 mM (inactive).
For `Cc1cc(F)c(F)c(C(=O)NC2CC2)c1Cl`, the Kd was > 4 mM (inactive).
For the compound `Cc1cccc(NC(=O)CN2C(=O)CNC2=O)c1`, the Kd was > 4 mM (inactive).
Take `Cc1ccc(-c2nc(-c3cccnc3)no2)cc1`: the Kd was > 4 mM (inactive).
As to `Cc1nnc(NCCCO)[nH]c1=O`, the Kd was > 4 mM (inactive).
With `Cn1nnc2cc(C(=O)O)ccc21`, the Kd was > 4 mM (inactive).
The result for `C=C1CCC2C(CC2(C)C)C(=C)CC/C1=N/O` (centres undefined) reads > 4 mM (inactive); that for `OC[C@@H](O)[C@@H](O[C@@H]1O[C@H](CO)[C@@H](O)[C@H](O)[C@H]1O)[C@H](O)[C@@H](O)CO`, > 4 mM (inactive).
As for `CC(C)Oc1ccc(NC(N)=O)cc1`, the Kd is > 4 mM (inactive).
Turning to `O=C1CC(C(=O)O)c2ccccc21` (centres undefined), the Kd is > 4 mM (inactive).
For `Nc1ccc(OCc2ccccc2)cc1`, the Kd was > 4 mM (inactive).
Turning to `Cc1ccc(CN2CCN(C(=O)C3CCC3)CC2)cc1`, the Kd is > 4 mM (inactive).
On to `CCCCC(Nc1n[nH]c(=O)[nH]c1=O)C(=O)O` (centres undefined), for which the Kd was > 4 mM (inactive).
In the case of `COc1ccc(-c2c(O)c3c(OC)c4c(cc3oc2=O)OC(C)(C)CC4)cc1`, the Kd is > 4 mM (inactive).
Turning to `Nc1ccc(Cc2ccncc2)cc1`, the Kd is > 4 mM (inactive).
In the case of `COC(=O)c1cc2cc(N)ccc2s1`, the Kd was > 4 mM (inactive).
`O=S(=O)(O)c1nc2ccccc2[nH]1`: the Kd is > 4 mM (inactive).
For `Cc1c(CO)cnn1-c1ccc(F)cc1`, the Kd is > 4 mM (inactive).
Consider `Cc1c(N=Cc2ccco2)c(=O)n(-c2ccccc2)n1C`, for which the Kd was > 4 mM (inactive).
As for `Cc1cc2cc(N)ccc2[nH]1`, the Kd was > 4 mM (inactive).
Turning to `O=C(O)CCS(=O)(=O)c1ccccc1`, the Kd was > 4 mM (inactive).
As to `NCc1ccc2c(c1)OCCCO2`, the Kd was > 4 mM (inactive).
Turning to `CN1CCN(c2ncnc3nc[nH]c23)CC1`, the Kd is > 4 mM (inactive).
For the compound `Cc1ccc(SCc2cc(=O)n3[nH]c(C)nc3n2)cc1`, the Kd was > 4 mM (inactive).
Consider `NC(=O)c1ccccc1N=Cc1ccco1`, for which the Kd was > 4 mM (inactive).
The result for `CC(CC(=O)O)n1cccn1` (centres undefined) reads > 4 mM (inactive); that for `Clc1ccccc1OCc1nc(-c2ccccn2)no1`, > 4 mM (inactive).
On to `O=C(CS(=O)(=O)c1ccccc1)N1CCCCCC1`, for which the Kd is > 4 mM (inactive).
In the case of `O=C1NC(=S)NC(=O)C1=Cc1ccco1`, the Kd is > 4 mM (inactive).
The result for `COc1cc2ccc(=O)oc2c2ccoc12` reads > 4 mM (inactive); that for `C[C@H]1O[C@@H](O[C@H]2[C@@H](O)C[C@H](O[C@H]3[C@@H](O)C[C@H](O[C@H]4CC[C@]5(C)C6C[C@@H](O)[C@]7(C)[C@@H](C8=CC(=O)OC8)CC[C@]7(O)C6CC[C@@H]5C4)O[C@@H]3C)O[C@@H]2C)C[C@H](O)[C@@H]1O` (some centres undefined), > 4 mM (inactive).
On to `N[C@@H](C(=O)O)[C@@H](O)[C@H](O)[C@H](O)CO`, for which the Kd is > 4 mM (inactive).
`CC(C)[C@@H]1CC[C@@H](C)C[C@H]1OC(=O)c1ccccc1`: the Kd was > 4 mM (inactive).
As to `Cn1c(C(=O)O)ccc1S(N)(=O)=O`, the Kd is > 4 mM (inactive).
Turning to `O=S(=O)(CCN1CCCC1)c1ccccc1`, the Kd is > 4 mM (inactive).
For the compound `c1ccc(-c2nnc(CNCc3ccco3)o2)cc1`, the Kd is > 4 mM (inactive).
On to `O=S1(=O)CCC2CC=CCC21` (centres undefined), for which the Kd was > 4 mM (inactive).
The result for `CN(C)c1n[nH]c(=O)[nH]c1=O` reads > 4 mM (inactive); that for `Cc1ccc(-n2cnnn2)c2cccnc12`, > 4 mM (inactive); that for `COc1cc2c(cc1OC)C(=O)OC2`, > 4 mM (inactive).
Consider `O=C(O)CC1NCCNC1=O` (centres undefined), for which the Kd is > 4 mM (inactive).
On to `OCCNC(=S)Nc1ccccc1`, for which the Kd was > 4 mM (inactive).
As to `O=C1CC[C@]23/C=C/C(=O)NCCCCNCCCNC(=O)/C=C/c4ccc(c2c4)O[C@@H]3C1`, the Kd was > 4 mM (inactive).
With `Cc1ccc(NC(=O)CN2C(=O)CSC2=O)cc1`, the Kd was > 4 mM (inactive).
As to `CN1C(=O)Cc2cc(S(N)(=O)=O)ccc21`, the Kd was > 4 mM (inactive).
In the case of `O=S1(=O)CCC(Nc2ccccc2)C1` (centres undefined), the Kd was > 4 mM (inactive).
As to `COc1ccc2c(c1)c1n[nH]c(=S)nc1n2C`, the Kd is > 4 mM (inactive).
Regarding `c1cncc(-c2nnc(-c3cccnc3)nn2)c1`, the Kd is > 4 mM (inactive).
Consider `O=C1CN(C(=O)c2ccccc2F)c2ccccc2N1`, for which the Kd is > 4 mM (inactive).
Take `C[C@@H]1[C@H]2[C@H](O[C@@H]3O[C@H](CO)[C@@H](O)[C@H](O)[C@H]3O)OC=C(C(=O)O)[C@H]2C[C@@H]1O`: the Kd was > 4 mM (inactive).
As to `C=CCc1ccc2c(c1)OCO2`, the Kd was > 4 mM (inactive).
Regarding `O=C(Nc1ccc2c(c1)CCC2)c1cnccn1`, the Kd was > 4 mM (inactive).
As to `NC(=O)CCn1ncc2ccccc21`, the Kd was > 4 mM (inactive).
Consider `COc1cc2c(cc1OC)C(C)NCC2` (centres undefined), for which the Kd is > 4 mM (inactive).
Regarding `NC(=O)CSc1nc2ccccc2[nH]1`, the Kd is > 4 mM (inactive).
For `OC[C@@H]1CCCN2CCCC[C@H]12`, the Kd was > 4 mM (inactive).
The result for `CCOc1ccc(C(=O)c2ccc(O)c(O)c2O)cc1` reads > 4 mM (inactive).
For `O=C(Nc1ccc(N2CCCC2=O)cc1)c1cccc(F)c1`, the Kd is > 4 mM (inactive).
Consider `NCc1ccc2c(c1)OCCO2`, for which the Kd is > 4 mM (inactive).
For the compound `O=C(Nn1cnnc1)c1ccccc1Cl`, the Kd was > 4 mM (inactive).
Turning to `O=c1[nH]c(O)c(C=NCc2cccs2)c(=O)[nH]1`, the Kd is > 4 mM (inactive).
The figure for `COc1ccc(Cc2nccc3cc(OC)c(OC)cc23)cc1OC` is > 4 mM (inactive); for `Nc1ccnc(C(=O)O)c1` it is > 4 mM (inactive); for `O=C1NC(=O)C(c2ccccc2)C(=O)N1` it is > 4 mM (inactive).
The result for `O=C(NCc1ccccc1)c1cnsn1` reads > 4 mM (inactive); that for `O=c1[nH]cnc2c1nnn2Cc1ccccc1`, > 4 mM (inactive); that for `O=C(Nc1ccccc1)Nc1ccccn1`, > 4 mM (inactive).
The figure for `O=C(Nc1ccccc1)c1cnc2n(c1=O)CCS2` is > 4 mM (inactive); for `Cc1nn(C)c2sc(CO)cc12` it is > 4 mM (inactive); for `Nc1ncnc2c1ncn2[C@@H]1O[C@H](CO)[C@@H](O)[C@H]1O` it is > 4 mM (inactive).
Turning to `CN1CCOc2cc(C(=O)O)ccc21`, the Kd was > 4 mM (inactive).
Take `COc1ccc2c(c1)OCC(Cc1ccc(OC)c(O)c1)C2=O` (centres undefined): the Kd was > 4 mM (inactive).
Take `CCOc1cc(C)c(Cl)cc1S(=O)(=O)N(C)C`: the Kd was > 4 mM (inactive).
For `O=c1ccc(=O)n(CN2CCc3ccccc3C2)[nH]1`, the Kd is > 4 mM (inactive).
As to `CC(=O)O[C@H]1C[C@@H](OC(C)=O)C(C)(C)C2C[C@@H](OC(C)=O)[C@]3(C)C(CC[C@@]4(C)[C@H](c5ccoc5)OC(=O)[C@H]5O[C@]543)[C@]21C` (some centres undefined), the Kd is > 4 mM (inactive).
Consider `CNC(=O)c1ccc([N+](=O)[O-])cc1Cl`, for which the Kd is > 4 mM (inactive).
On to `NS(=O)(=O)c1ccc(NC(=O)c2ccccc2F)cc1`, for which the Kd was > 4 mM (inactive).
As for `CC(=O)Nc1nc(C)nc(-c2ccccc2)c1C(C)=O`, the Kd was > 4 mM (inactive).
The figure for `NC(=O)c1ccccc1NC(=O)C1CCCO1` (centres undefined) is > 4 mM (inactive); for `Cc1cc(NC(=O)CCCn2cnc([N+](=O)[O-])n2)no1` it is > 4 mM (inactive); for `O=C(Nc1ccc(-c2nnco2)cc1)c1ccccc1` it is > 4 mM (inactive).
As for `O=C(O)C1CN(Cc2ccccc2)CCO1` (centres undefined), the Kd was > 4 mM (inactive).
Turning to `COc1ccc(-c2coc3cc(O)ccc3c2=O)c(OC)c1`, the Kd was > 4 mM (inactive).
`COc1ccc2c(c1)OC[C@@H](Cc1ccc(OC)c(OC)c1)[C@H]2O`: the Kd was > 4 mM (inactive).
For `O=C(Nc1cccnc1)c1cccs1`, the Kd was > 4 mM (inactive).
The result for `COc1c(C(C)C)oc2cc3oc(=O)ccc3cc12` reads > 4 mM (inactive); that for `COc1ccc2[nH]cc(CN(C)C)c2c1`, > 4 mM (inactive); that for `CCOC(=O)C1=C(O)CCN(C)C1`, > 4 mM (inactive).
